Biological target: T1, human GPR120 (Homo sapiens, UniProt Q5NUL3)
T1 construct: expressed in transfected cells; host or cells: CHOA12 cells or CHO-K1 cells, stably transfected
T1 sequence (Q5NUL3 1-361): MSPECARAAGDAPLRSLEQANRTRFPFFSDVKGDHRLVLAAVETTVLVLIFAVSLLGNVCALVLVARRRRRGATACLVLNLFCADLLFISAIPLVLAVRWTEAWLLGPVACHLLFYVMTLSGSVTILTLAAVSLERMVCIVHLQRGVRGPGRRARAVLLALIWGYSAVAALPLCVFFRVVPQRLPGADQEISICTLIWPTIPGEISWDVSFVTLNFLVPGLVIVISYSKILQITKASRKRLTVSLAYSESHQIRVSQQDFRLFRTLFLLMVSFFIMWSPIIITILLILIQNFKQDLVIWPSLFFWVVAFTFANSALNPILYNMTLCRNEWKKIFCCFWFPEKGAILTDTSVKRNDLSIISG
Test: GPR120 pERK AlphaScreen SureFire Assay (human GPR120 pERK assay)
Type: cell-based
Details: CHO cells stably transfected with the short form of human GPR120 receptor
From the text: GPR120 activity was monitored by measuring phosphorylation of ERK (pERK), since G protein receptors are known to activate the ERK signaling cascade either directly and/or through recruitment of arrestin that serves as a scaffold for downstream signaling events.
GPR120 pERK AlphaScreen SureFire Assay
The human and mouse GPR120-mediated intracellular phosphorylated ERK assays were established using CHOAl2 cells stably transfected with the short form of human or mouse GPR120 receptor. Cells were cultured in growth medium consisting of F-12 media (Invitrogen Cat. #11765) with 5% Charcoal/Dextran FBS (Invitrogen Cat. #12676-029), 500 μg/mL GENETICIN® (Life Technologies Cat. #10131-027) and 250 μg/mL Zeocin (Invitrogen Cat. #R250-01). Cells were cryo preserved at a concentration of 2×10^7 cells/mL, in 90% Charcoal/Dextran FBS and 10% DMSO, and frozen in liquid nitrogen at a low passage number.
For the pERK assay, 2×10^7 cells/mL cryopreserved human and mouse cells were thawed rapidly in a 37° C. water bath and added to a T-225 flask containing 50 mL growth medium. The flasks were placed in a tissue culture incubator overnight (37° C., 5% CO2). The next day, cells were harvested with trypsin (Gibco Cat. #25300-054), resuspended in serum-containing growth medium and counted using a Cellometer and volume adjusted to a concentration of 0.6×10^6cells/mL. Cells were plated into 384-well clear bottom tissue culture plates (BD Cat. #353962) at 50 μL/well, for a density of 30,000 cells/well using a MULTIDROP® and incubated for 16-18 hours (overnight) at 37° C. with 5% CO2. The next day, cells were serum starved in 30 μL of F-12 media without any serum or antibiotics for 2 hours at 37° C.
Test compounds were 3-fold, 11-point serially diluted in DMSO in a REMP assay plate (Matrix Cat. #4307) by Tecan and 5 μL was transferred into an ECHO source plate (Labcyte Cat. #LC-0200). Cells were then stimulated with 50 nL of compound dilutions using ECHO liquid handler for 7 minutes at 37° C. Compounds ranged from final assay concentrations of 33.33 μM to 0.56 nM.
The media was then dumped and cells lysed with 20 μL of 1× Lysis buffer from the AlphaScreen SureFire Phospho-ERK 1/2 Kit (Perkin Elmer Cat. #6760617M). The lysis buffer was diluted 5-fold with water before use. The plate was agitated on a shaker for 10 minutes after which 2 μL was transferred into a 384-well white proxiplate (Perkin Elmer Cat. #6008289). The SureFire assay reagent mix was prepared by mixing 60 parts Reaction Buffer, 10 parts Activation Buffer, 1 part Donor Beads, 1 part Acceptor Beads (Perkin Elmer Cat. #TGRES10K). 3.5 μL/well of this reagent mix was manually added to the proxiplate with a multichannel pipettor. Plates were spun down at 1000 rpm for 2 minutes, followed by light-protected incubation at room temperature for 2 hours. The plates were read on the Alpha-technology compatible Envision multilabel plate reader using AlphaScreen protocol according to manufacturer's specifications. The agonist effect of compounds was expressed as 100×(average sample-average blank)/(average total−average blank) where sample is the luminescence activity in the presence of test compound, blank is equal to the luminescence activity in the presence of DMSO control and the total is signal induced by 50 μM linolenic acid as reference compound. Activation data for the test compound over a range of concentrations was plotted as percentage activation of the test compound (100%=maximum response). After correcting for background, EC50 values were determined. The EC50 is defined as the concentration of test compound which produces 50% of the maximal response and was quantified using the 4 parameter logistic equation to fit the data.
The human and mouse GPR120-mediated intracellular phosphorylated ERK assays were also established using CHO-K1 cells stably transfected with the short form of human or mouse GPR120 receptor. […]

Compound	EC50 [nM]
CC1(C)Cc2cc(Cl)cc(COC34CCC(CCCC(=O)O)(CC3)CC4)c2O1 [Example 2, 4-(4-((5-Chloro-2,2-dimethyl-2,3-dihydrobenzofuran-7-yl)methoxy)bicyclo[2.2.2]octan-1-yl)butanoic acid]	2470
Cc1cc(COC23CCC(CCC(=O)O)(CC2)CC3)n(-c2ccc(Cl)cc2)n1 [Example 4, 3-(4-((1-(4-Chlorophenyl)-3-methyl-1H-pyrazol-5-yl)methoxy)bicyclo[2.2.2]octan-1-yl)propanoic acid]	2740
COc1cccc(COC23CCC(CCCC(=O)O)(CC2)CC3)c1 [Example 7, 4-(4-(3-Methoxy-benzyloxy)bicyclo[2.2.2]octan-1-yl)butanoic acid]	6910
O=C(O)CCC12CCC(OCc3cc(F)cc(Oc4ccccc4)c3)(CC1)CC2 [Example 8, 3-(4-(3-Fluoro-5-phenoxy-benzyloxy)bicyclo [2.2.2]octan-1-yl)propanoic acid]	270
CC1(C)Cc2cc(Cl)cc(OCC34CCC(/C=C/C(=O)O)(CC3)CC4)c2O1 [Example 13, (E)-3-(4-(((5-Chloro-2,2-dimethyl-2,3-dihydrobenzofuran-7-yl)oxy)methyl)bicyclo[2.2.2]octan-1-yl)acrylic acid]	2690
CC1(C)Cc2cc(Cl)cc(OCC34CCC(CCC(=O)O)(CC3)CC4)c2O1 [Example 15, 3-(4-(((5-Chloro-2,2-dimethyl-2,3-dihydrobenzofuran-7-yl)oxy)methyl)bicyclo[2.2.2]octan-1-yl)propanoic acid]	1340

The next lines start with the values.

EC50 [nM]	Compound
610	CC1(C)Cc2cc(Cl)cc(COC34CCC(CCC(=O)O)(CC3)CC4)c2O1 [Example 1, 3-(4-((5-Chloro-2,2-dimethyl-2,3-dihydrobenzofuran-7-yl)methoxy)bicyclo[2.2.2]octan-1-yl)propanoic acid]
1110	N#Cc1cccc(OC23CCC(CCCC(=O)O)(CC2)CC3)c1 [Example 3, 4-(4-(3-Cyanophenoxy)bicyclo[2.2.2]octan-1-yl)butanoic acid]
430	O=C(O)CCC12CCC(OCc3cccc(Oc4ccccc4)c3)(CC1)CC2 [Example 5, 3-(4-(3-Phenoxy-benzyloxy)bicyclo[2.2.2]octan-1-yl)propanoic acid]
400	O=C(O)CCC12CCC(OCc3ccccc3Oc3ccccc3)(CC1)CC2 [Example 6, 3-(4-(2-Phenoxy-benzyloxy)bicyclo[2.2.2]octan-1-yl)propanoic acid]
280	O=C(O)CCC12CCC(OCc3cc(F)ccc3Oc3ccccc3)(CC1)CC2 [Example 9, 3-(4-(5-Fluoro-2-phenoxybenzyloxy)bicyclo[2.2.2]octan-1-yl)propanoic acid]
680	O=C(O)COCC12CCC(OCc3cccc(Oc4ccccc4)c3)(CC1)CC2 [Example 10, 2-((4-(3-Phenoxybenzyloxy)bicyclo[2.2.2]octan-1-yl)methoxy)acetic acid]
870	CC(C)Oc1cc(F)cc(COC23CCC(CCC(=O)O)(CC2)CC3)c1 [Example 11, 3-(4-(3-Fluoro-5-isopropoxybenzyloxy)bicyclo[2.2.2]octan-1-yl)propanoic acid]
540	O=C(O)CCC12CCC(OCc3cc(F)cc(Oc4ccc(F)cc4)c3)(CC1)CC2 [Example 12, 3-(4-(3-Fluoro-5-(4-fluorophenoxy)benzyloxy)bicyclo[2.2.2]octan-1-yl)propanoic acid]
900	CC1(C)Cc2cccc(OCC34CCC(CCC(=O)O)(CC3)CC4)c2O1 [Example 14, 3-(4-(((2,2-Dimethyl-2,3-dihydrobenzofuran-7-yl)oxy)methyl)bicyclo[2.2.2]octan-1-yl)propanoic acid]
